Measured values from BindingDB's records for doi:10.1039/d3md00036b (n/a, 2023).

Target: Metallo-beta-lactamase type 2 (Klebsiella pneumoniae, UniProt C7C422)
Assay: Binding affinity to bacterial NDM-1 (unknown origin) assessed as inhibition constant

Chain of Metallo-beta-lactamase type 2 (C7C422 whole entry): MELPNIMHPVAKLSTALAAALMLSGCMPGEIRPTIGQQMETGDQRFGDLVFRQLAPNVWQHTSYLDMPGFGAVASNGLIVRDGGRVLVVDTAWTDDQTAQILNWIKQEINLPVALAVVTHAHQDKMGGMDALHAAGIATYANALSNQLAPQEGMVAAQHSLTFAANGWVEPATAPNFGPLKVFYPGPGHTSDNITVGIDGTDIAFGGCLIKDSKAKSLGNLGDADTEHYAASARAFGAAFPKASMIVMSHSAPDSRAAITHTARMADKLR

CN1CCN(C(=S)N/N=C/c2ccccc2O)CC1
Ki: 0.44 nM
